Results taken from ChEMBL document CHEMBL6153032, “Discovery of a highly potent, N-terminal domain-targeting degrader of AR-FL/AR-V7 for the treatment of prostate cancer” (Eur J Med Chem, 2025).
pIC50: −log10 of the molar value. Calls of active or inactive are those of the source. The calls are words filed in the database; no cut-off is given here.

Key:
[1] = tested on: Protein cereblon/Androgen receptor (Homo sapiens), P10275+Q96SW2 [UNDEFINED MUTATION]; experiment: PROTAC activity at AR-V7/CRBN in human 22Rv1 cells assessed as induction of AR-V7 degradation at 1 uM incubated for 24 hrs by Western blot analysis relative to control; assay type: cell-based; details: CWR22R
[2] = tested on: Protein cereblon/Androgen receptor (Homo sapiens), P10275+Q96SW2 [UNDEFINED MUTATION]; experiment: PROTAC activity at AR-V7/CRBN in human 22Rv1 cells assessed as induction of AR-V7 degradation at 5 uM incubated for 24 hrs by Western blot analysis relative to control; assay type: cell-based; details: CWR22R
CWR22R [3] = experiment: Antiproliferative activity against human 22Rv1 cells incubated for 4 days by CCK-8 assay; assay type: functional, cell-based; details: 22Rv1, 96 h
[4] = target: T1, Protein cereblon/Androgen receptor (Homo sapiens, UniProt P10275+Q96SW2); experiment: PROTAC activity at full length Androgen receptor/CRBN in human 22Rv1 cells assessed as induction of full length Androgen receptor degradation at 5 uM incubated for 24 hrs by Western blot analysis relative to control; assay type: cell-based
[5] = target: T1, Protein cereblon/Androgen receptor; experiment: PROTAC activity at full length Androgen receptor/CRBN in human 22Rv1 cells assessed as induction of full length Androgen receptor degradation at 1 uM incubated for 24 hrs by Western blot analysis relative to control; assay type: cell-based
CWR22R [6] = experiment: Induction of apoptosis in human 22Rv1 cells assessed as early apoptotic cells at 100 nM incubated for 48 hrs by Annexin V/FITC staining based flow cytometry analysis (reference value: 2.08 %); assay type: functional
CWR22R [7] = experiment: Induction of cell cycle arrest in human 22Rv1 cells assessed as accumulation of cells at G2/M phase at 100 nM incubated for 24 hrs by PI staining based flow cytometry analysis (reference value: 8.61%); assay type: functional
CWR22R [8] = experiment: Induction of cell cycle arrest in human 22Rv1 cells assessed as accumulation of cells at G0/G1 phase at 100 nM incubated for 24 hrs by PI staining based flow cytometry analysis (reference value: 62.66%); assay type: functional
CWR22R [9] = experiment: Induction of apoptosis in human 22Rv1 cells assessed as necrotic cells at 100 nM incubated for 48 hrs by Annexin V/FITC staining based flow cytometry analysis (reference value: 2.31 %); assay type: functional
CWR22R [10] = experiment: Inhibition of colony formation in human 22Rv1 cells assessed as reduction in colony formation incubated for 14 days; assay type: functional, cell-based; details: dose 1-100 nM, time 14.0 day
CWR22R [11] = experiment: Induction of apoptosis in human 22Rv1 cells assessed as late apoptotic cells at 100 nM incubated for 48 hrs by Annexin V/FITC staining based flow cytometry analysis (reference value: 1.12 %); assay type: functional
CWR22R [12] = experiment: Induction of cell cycle arrest in human 22Rv1 cells assessed as accumulation of cells at S phase at 100 nM incubated for 24 hrs by PI staining based flow cytometry analysis (reference value: 28.73%); assay type: functional
CWR22R [13] = experiment: Induction of apoptosis in human 22Rv1 cells assessed as viable cells at 100 nM incubated for 48 hrs by Annexin V/FITC staining based flow cytometry analysis (reference value: 94.49%); assay type: functional; details: read-out: Activity
[14] = tested on: Androgen receptor (Homo sapiens), P10275 [UNDEFINED MUTATION]; experiment: Binding affinity to AR-V7 in human 22Rv1 cells assessed as thermal stabilization at 10 uM incubated for 24 hrs by CETSA analysis; assay type: cell-based
[15] = tested on: Androgen receptor (Homo sapiens), P10275 [UNDEFINED MUTATION]; experiment: Binding affinity to AR-V7 in human 22Rv1 cells at 10 uM incubated for 24 hrs by SPR analysis; assay type: cell-based
[16] = target: T2, Androgen receptor (Homo sapiens) (UniProt P10275); experiment: Binding affinity to Androgen receptor in human 22Rv1 cells at 10 uM incubated for 24 hrs by SPR analysis; assay type: cell-based
T2 sequence (whole entry): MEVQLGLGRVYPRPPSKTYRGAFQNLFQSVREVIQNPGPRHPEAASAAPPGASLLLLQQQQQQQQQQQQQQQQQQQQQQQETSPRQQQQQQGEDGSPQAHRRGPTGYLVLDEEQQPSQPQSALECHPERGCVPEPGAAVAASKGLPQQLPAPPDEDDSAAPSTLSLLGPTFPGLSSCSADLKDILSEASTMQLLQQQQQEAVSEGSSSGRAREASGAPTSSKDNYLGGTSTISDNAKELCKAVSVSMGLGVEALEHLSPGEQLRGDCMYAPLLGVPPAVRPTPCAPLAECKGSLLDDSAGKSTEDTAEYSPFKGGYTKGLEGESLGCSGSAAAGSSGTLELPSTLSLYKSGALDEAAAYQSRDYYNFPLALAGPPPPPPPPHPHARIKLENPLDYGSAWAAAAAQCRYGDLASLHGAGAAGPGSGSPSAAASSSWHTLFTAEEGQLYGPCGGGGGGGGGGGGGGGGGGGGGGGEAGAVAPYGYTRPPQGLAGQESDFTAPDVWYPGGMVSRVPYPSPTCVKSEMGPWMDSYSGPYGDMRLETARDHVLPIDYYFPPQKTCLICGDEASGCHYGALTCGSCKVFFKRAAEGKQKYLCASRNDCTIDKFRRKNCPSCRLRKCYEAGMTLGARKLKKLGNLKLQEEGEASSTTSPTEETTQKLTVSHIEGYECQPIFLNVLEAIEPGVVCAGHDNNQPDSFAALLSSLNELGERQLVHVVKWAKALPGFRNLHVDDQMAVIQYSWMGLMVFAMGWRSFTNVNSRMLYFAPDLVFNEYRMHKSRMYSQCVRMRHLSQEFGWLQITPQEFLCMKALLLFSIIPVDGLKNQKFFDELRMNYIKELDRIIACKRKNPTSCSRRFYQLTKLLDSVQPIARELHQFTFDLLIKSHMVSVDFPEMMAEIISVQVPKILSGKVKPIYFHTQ

[17] = target: T2, Androgen receptor (Homo sapiens); experiment: Binding affinity to Androgen receptor in human 22Rv1 cells assessed as thermal stabilization at 10 uM incubated for 24 hrs by CETSA analysis; assay type: cell-based

Chain of Protein cereblon/Androgen receptor (Homo sapiens), P10275+Q96SW2 [UNDEFINED MUTATION] (Q96SW2 whole entry, looked up, stated change not applied, one chain of several): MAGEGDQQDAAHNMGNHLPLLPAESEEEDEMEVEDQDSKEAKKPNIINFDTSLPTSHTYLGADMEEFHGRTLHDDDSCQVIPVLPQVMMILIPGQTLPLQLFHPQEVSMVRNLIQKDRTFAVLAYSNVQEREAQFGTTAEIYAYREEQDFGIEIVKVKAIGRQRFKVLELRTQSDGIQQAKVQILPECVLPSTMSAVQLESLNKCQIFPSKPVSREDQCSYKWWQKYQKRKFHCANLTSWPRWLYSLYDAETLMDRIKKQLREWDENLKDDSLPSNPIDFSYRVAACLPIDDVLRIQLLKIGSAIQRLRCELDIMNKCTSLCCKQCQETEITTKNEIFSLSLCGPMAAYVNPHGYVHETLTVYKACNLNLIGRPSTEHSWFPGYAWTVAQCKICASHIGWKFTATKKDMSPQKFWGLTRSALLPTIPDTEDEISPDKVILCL
T1 sequence (Q96SW2 whole entry, looked up, one chain of several): as the sequence (Q96SW2 whole entry, looked up, stated change not applied, one chain of several) above

Row | Activity [1] [%] | Activity [2] [%] | Activity [4] [%] | Activity [5] [%] | SMILES | pIC50 (CWR22R [3]) | further results
1 | < 10 | < 10 | < 10 | < 10 | CC(C)(c1ccc(OCc2cccc(N3CCOCC3)n2)cc1)c1ccc(OCC2CCN(c3cccc4c3C(=O)N(C3CCC(=O)NC3=O)C4=O)CC2)cc1 (configuration not stated) | < 4.70 | 
2 | 80.1 | 93.6 | 91.1 | 88.1 | CC(C)(c1ccc(OCC(=O)NCCCNc2cccc3c2C(=O)N(C2CCC(=O)NC2=O)C3=O)cc1)c1ccc(OCC(O)CCl)cc1 (configuration not stated) | 5.95 | 
3 | < 10 | 40 | 83.5 | 42.5 | CC(C)(c1ccc(OCC(=O)NCCOCCOCCOCCNc2cccc3c2C(=O)N(C2CCC(=O)NC2=O)C3=O)cc1)c1ccc(OCc2cccc(N3CCOCC3)n2)cc1 (configuration not stated) | 4.95 | 
4 | 87.2 | 87 | < 10 | 82.5 | CC(C)(c1ccc(OCCNc2cccc3c2C(=O)N(C2CCC(=O)NC2=O)C3=O)cc1)c1ccc(OCC(O)CCl)cc1 (configuration not stated) | 5.11 | 
5 | < 10 | 48.7 | 28.3 | < 10 | CC(C)(c1ccc(OCC(=O)NC2CCN(c3cccc4c3C(=O)N(C3CCC(=O)NC3=O)C4=O)CC2)cc1)c1ccc(OCc2cccc(N3CCOCC3)n2)cc1 (configuration not stated) | < 4.70 | 
6 | < 10 | < 10 | < 10 | < 10 | CC(C)(c1ccc(OCC(=O)NCCN2CCN(c3cccc4c3C(=O)N(C3CCC(=O)NC3=O)C4=O)CC2)cc1)c1ccc(OCc2cccc(N3CCOCC3)n2)cc1 (configuration not stated) | < 4.70 | 
7 | 58.7 | 83.1 | 58.3 | 52.1 | CC(C)(c1ccc(OCCCNc2cccc3c2C(=O)N(C2CCC(=O)NC2=O)C3=O)cc1)c1ccc(OCC(O)CCl)cc1 (configuration not stated) | 5.01 | 
8 | 67.7 | 88.2 | 89 | 80.1 | CC(C)(c1ccc(OCC(=O)NC2CN(c3cccc4c3C(=O)N(C3CCC(=O)NC3=O)C4=O)C2)cc1)c1ccc(OCC(O)CCl)cc1 (configuration not stated) | 5.93 | 
9 | 33.2 | < 10 | < 10 | < 10 | CC(C)(c1ccc(OCC(=O)N2CCC(N3CCN(c4ccc5c(c4)C(=O)N(C4CCC(=O)NC4=O)C5=O)CC3)CC2)cc1)c1ccc(OCC(O)CCl)cc1 (configuration not stated) | < 4.70 | 
10 | < 10 | 55.5 | 78.6 | 22.1 | CC(C)(c1ccc(OCC(=O)NCCCNc2cccc3c2C(=O)N(C2CCC(=O)NC2=O)C3=O)cc1)c1ccc(OCc2cccc(N3CCOCC3)n2)cc1 (configuration not stated) | 5.13 | 

Continued, molecule first:

Row | SMILES | Activity [1] [%] | Activity [2] [%] | Activity [4] [%] | Activity [5] [%] | pIC50 (CWR22R [3]) | further results
11 | CC(C)(c1ccc(OCC(=O)N2CCC(CNc3ccc4c(c3)C(=O)N(C3CCC(=O)NC3=O)C4=O)CC2)cc1)c1ccc(OCC(O)CCl)cc1 (configuration not stated) | < 10 | 79.9 | 69.6 | < 10 | 4.82 | 
12 | CC(C)(c1ccc(OCC(=O)NC2CCN(c3ccc4c(c3)C(=O)N(C3CCC(=O)NC3=O)C4=O)CC2)cc1)c1ccc(OCC(O)CCl)cc1 (configuration not stated) | 68.8 | 71.4 | 45.2 | 75.2 | 5.44 | 
13 | CC(C)(c1ccc(OC[C@H](O)CO)cc1)c1ccc(OC[C@H](O)CCl)cc1 | < 10 | < 10 | < 10 | < 10 | < 4.70 | Activity (CWR22R [6]): 13.9%; Activity (CWR22R [7]): 11.07%; Activity (CWR22R [8]): 50.06%; Activity (CWR22R [9]): 0.78%; inhibition (CWR22R [10]): Weak_effect; Activity (CWR22R [11]): 4.6%; Activity (CWR22R [12]): 38.87%; viability at 0.1 µM (CWR22R [13]): 80.7%
14 | CC(C)(c1ccc(OCC(=O)NCCCCCNc2ccc3c(c2)C(=O)N(C2CCC(=O)NC2=O)C3=O)cc1)c1ccc(OCC(O)CCl)cc1 (configuration not stated) | < 10 | < 10 | < 10 | < 10 | < 4.70 | 
15 | CC(C)(c1ccc(OCC(=O)NCCCCCCNc2ccc3c(c2)C(=O)N(C2CCC(=O)NC2=O)C3=O)cc1)c1ccc(OCC(O)CCl)cc1 (configuration not stated) | 32.2 | < 10 | 72.1 | 84.1 | 4.94 | 
16 | CC(C)(c1ccc(OCC(=O)NCCNc2ccc3c(c2)C(=O)N(C2CCC(=O)NC2=O)C3=O)cc1)c1ccc(OCC(O)CCl)cc1 (configuration not stated) | < 10 | < 10 | < 10 | < 10 | < 4.70 | 
17 | CC(C)(c1ccc(OCCCCCCNc2cccc3c2C(=O)N(C2CCC(=O)NC2=O)C3=O)cc1)c1ccc(OCC(O)CCl)cc1 (configuration not stated) | 79.5 | 93 | < 10 | 16.7 | 5.19 | 
18 | CC(C)(c1ccc(OCCCCNc2cccc3c2C(=O)N(C2CCC(=O)NC2=O)C3=O)cc1)c1ccc(OCC(O)CCl)cc1 (configuration not stated) | 78.1 | 89.3 | 31.3 | < 10 | 5.04 | 
19 | CC(C)(c1ccc(O)cc1)c1ccc(OCc2cccc(N3CCOCC3)n2)cc1 |  |  |  |  |  | Activity [14]: inactive; Activity [15]: Active; Activity [16]: Active; Activity [17]: inactive
20 | CC(C)(c1ccc(OCCCCNc2ccc3c(c2)C(=O)N(C2CCC(=O)NC2=O)C3=O)cc1)c1ccc(OCC(O)CCl)cc1 (configuration not stated) | 55.1 | 23.6 | 81.1 | 88.1 | 5.51 | 
21 | CC(C)(c1ccc(OCCCCCCNc2ccc3c(c2)C(=O)N(C2CCC(=O)NC2=O)C3=O)cc1)c1ccc(OCC(O)CCl)cc1 (configuration not stated) | 74.7 | 21.2 | < 10 | 90 | 5.66 | 
22 | CC(C)(c1ccc(OCC(=O)NC2CN(c3ccc4c(c3)C(=O)N(C3CCC(=O)NC3=O)C4=O)C2)cc1)c1ccc(OCC(O)CCl)cc1 (configuration not stated) | 62.1 | 69.8 | 22.3 | < 10 | < 4.70 | 
23 | CC(C)(c1ccc(OCC(=O)NCCCCNc2ccc3c(c2)C(=O)N(C2CCC(=O)NC2=O)C3=O)cc1)c1ccc(OCC(O)CCl)cc1 (configuration not stated) | < 10 | < 10 | < 10 | < 10 | < 4.70 | 
24 | CC(C)(c1ccc(OCC(=O)NCCCNc2ccc3c(c2)C(=O)N(C2CCC(=O)NC2=O)C3=O)cc1)c1ccc(OCC(O)CCl)cc1 (configuration not stated) | < 10 | < 10 | < 10 | < 10 | < 4.70 | 
